# Source: US20220235064A1 (WELLMARKER BIO CO., LTD., priority 2019, published 2022)
# Where a name gives a salt, the structure may show the parent alone.
# Tests used:
# RON tyrosine kinase = target: T1, RON tyrosine kinase (Homo sapiens, UniProt Q04912); test: Enzyme inhibitory activity against RON tyrosine kinase (TR-FRET); type: biochemical; conditions: RON (Carna Bioscience)
# T1 construct: purchased Carna Bioscience
# In short: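 Recombinant RON was preincubated with compound for 15 min at RT in 50 mM HEPES pH 7.5, 10 mM MgCl2, 1 mM EGTA, 2 mM DTT, 0.01% Tween-20. Enzyme (0.4 nM), ATP (60 μM) and tyrosine peptide (400 nM) were prepared at 2×, 4× and 4× final. After 60 min at RT, EDTA/Eu-anti-phosphotyrosine stop; IC50 from 665 nm TR-FRET emission.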
# [1] = tested on: cancer cell line KM12C, in which RON is activated; test: Cell growth inhibitory ability in RON-activated cancer cell line (MTS); type: cell-based; conditions: Homo sapiens, 48 hours, absorbance 490 nm
# In short: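 KM12C cells (RON-activated, MEM with FBS) exposed to compound […] for 48 h. MTS added 24 h after treatment ended, incubated 4 h at 37° C, absorbance read at 490 nm. IC50 derived from absorbance.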
# [2] = tested on: cancer cell line KM12C, in which RON is activated; test: Cell-killing efficacy in RON-activated cancer cell line (trypan blue); type: cell-based; conditions: Homo sapiens, 48 hours, trypan blue, n=2, read-out: Cell death (%) Cancer cell line KM12C
# Description: Experimental Example 3: Measurement of Cell-Killing Efficacy of Example Compounds in RON-Activated Cancer Cell Line
# The cancer cell line KM12C (80015, KCLB, MEM+10% FBS), in which RON is activated, was dispensed into each 60 mm^2 dish at 1×10^5 cells. After 24 hours, the dish was treated with each of the example compounds at a concentration of 1 μM or 5 μM while performing medium exchange, and then reaction was allowed to proceed for 48 hours. After 48 hours, centrifugation was performed for 4 minutes at 1,500 rpm to collect cells and cell fluid. Thereafter, living cells and dead cells were quantified (n=2) using a trypan blue solution (15250-061, Gibco), and statistical analysis was performed using Excel-T-test. Here, as a negative control, only a solvent (0.100 DMSO) was used; and as a positive control, N-(4-(2-amino-3-chloropyridin-4-yloxy)-3-fluorophenyl)-4-ethoxy-1-(4-fluorophenyl)-2-oxo-1,2-dihydropyridine-3-carboxamide, which is the compound of Example 1 in WO 2008/058229 A1, was used.
# T1 sequence (Q04912 25-1400): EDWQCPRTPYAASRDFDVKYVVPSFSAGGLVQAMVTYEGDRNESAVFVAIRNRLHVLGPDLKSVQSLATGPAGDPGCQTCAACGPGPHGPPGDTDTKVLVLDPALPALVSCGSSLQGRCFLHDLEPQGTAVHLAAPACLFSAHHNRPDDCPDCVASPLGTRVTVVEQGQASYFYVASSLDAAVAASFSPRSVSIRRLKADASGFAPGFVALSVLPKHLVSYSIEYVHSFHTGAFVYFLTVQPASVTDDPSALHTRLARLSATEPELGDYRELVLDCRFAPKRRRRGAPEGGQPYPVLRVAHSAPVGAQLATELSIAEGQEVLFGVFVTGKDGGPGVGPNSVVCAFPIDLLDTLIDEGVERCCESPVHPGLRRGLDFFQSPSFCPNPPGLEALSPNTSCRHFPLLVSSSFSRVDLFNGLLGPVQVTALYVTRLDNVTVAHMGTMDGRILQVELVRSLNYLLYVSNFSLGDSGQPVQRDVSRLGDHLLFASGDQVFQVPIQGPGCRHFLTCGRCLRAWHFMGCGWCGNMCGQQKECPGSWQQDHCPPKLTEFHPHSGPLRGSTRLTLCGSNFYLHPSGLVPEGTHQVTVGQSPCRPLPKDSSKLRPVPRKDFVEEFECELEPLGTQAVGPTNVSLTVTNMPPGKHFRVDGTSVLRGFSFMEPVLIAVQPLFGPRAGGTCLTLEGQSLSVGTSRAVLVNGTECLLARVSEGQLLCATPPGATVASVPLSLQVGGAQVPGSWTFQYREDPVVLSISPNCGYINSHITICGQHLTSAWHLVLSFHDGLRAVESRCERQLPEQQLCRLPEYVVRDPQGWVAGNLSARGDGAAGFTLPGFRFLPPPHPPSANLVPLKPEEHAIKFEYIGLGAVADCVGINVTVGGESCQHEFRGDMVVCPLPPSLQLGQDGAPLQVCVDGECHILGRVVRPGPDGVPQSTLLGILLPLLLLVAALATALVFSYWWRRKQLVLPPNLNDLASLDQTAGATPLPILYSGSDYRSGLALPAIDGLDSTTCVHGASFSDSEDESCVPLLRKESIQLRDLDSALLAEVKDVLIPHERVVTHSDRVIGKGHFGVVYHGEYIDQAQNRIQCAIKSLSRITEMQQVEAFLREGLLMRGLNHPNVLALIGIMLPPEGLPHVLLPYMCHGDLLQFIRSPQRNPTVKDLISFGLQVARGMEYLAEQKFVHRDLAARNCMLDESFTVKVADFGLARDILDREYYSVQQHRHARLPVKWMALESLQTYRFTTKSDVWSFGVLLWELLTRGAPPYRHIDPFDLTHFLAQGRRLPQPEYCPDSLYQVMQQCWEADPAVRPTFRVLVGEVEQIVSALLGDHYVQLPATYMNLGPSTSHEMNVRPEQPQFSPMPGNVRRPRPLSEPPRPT
SMILES,IC50 (RON tyrosine kinase) [nM],IC50 [1] [nM],cytotoxicity at 1 µM [2] [%],cytotoxicity at 5 µM [2] [%]
"COc1cc2ncnc(Oc3ccc(NC(=O)c4c5c(cn(-c6ccc(F)cc6)c4=O)CCO5)cc3F)c2cc1OC [Example 46, N-(4-((6,7-Dimethoxyquinazolin-4-yl)oxy)-3-fluorophenyl)-5-(4-fluorophenyl)-6-oxo-2,3,5,6-tetrahydrofuro[3,2-c]pyridine-7-carboxamide]",2.39,6,23.7,27.4
"O=C(Nc1ccc(Oc2ccnc3cc(-c4ccc(CN5CCOCC5)cn4)sc23)c(F)c1)c1c2c(cn(-c3ccccc3)c1=O)CCO2 [Example 6, N-(3-Fluoro-4-((2-(5-(morpholinomethyl)pyridin-2-yl)thieno[3,2-b]pyridin-7-yl)oxy)phenyl)-6-oxo-5-phenyl-2,3,5,6-tetrahydrofuro[3,2-c]pyridine-7-carboxamide hydrochloride]",1.43,2,29.3,34.3
"COc1cc2nccc(Oc3ccc(NC(=O)c4c5c(cn(-c6ccccc6)c4=O)CCO5)cc3F)c2cc1OC [Example 41, N-(4-((6,7-Dimethoxyquinolin-4-yl)oxy)-3-fluorophenyl)-6-oxo-5-phenyl-2,3,5,6-tetrahydrofuro[3,2-c]pyridine-7-carboxamide]",2.86,2,16,21.4
"O=C(Nc1ccc(Oc2ccnc3cc(-c4ccccn4)sc23)c(F)c1)c1c2c(cn(-c3ccc(F)cc3)c1=O)CCO2 [Example 3, N-(3-Fluoro-4-((2-(pyridin-2-yl)thieno[3,2-b]pyridin-7-yl)oxy)phenyl)-5-(4-fluorophenyl)-6-oxo-2,3,5,6-tetrahydrofuro[3,2-c]pyridine-7-carboxamide]",2.39,3,24.6,34
"CNC(=O)c1cc2nccc(Oc3ccc(NC(=O)c4c5c(cn(-c6ccc(F)cc6)c4=O)CCO5)cc3F)c2cc1OCCN1CCOCC1 [Example 166, N-(3-Fluoro-4-((7-(methylcarbamoyl)-6-(2-morpholinoethoxy)quinolin-4-yl)oxy)phenyl)-5-(4-fluorophenyl)-6-oxo-2,3,5,6-tetrahydrofuro[3,2-c]pyridine-7-carboxamide]",1.9,16,11.4,14.9
"COc1cc2nccc(Oc3ccc(NC(=O)c4c5c(cn(-c6ccc(F)cc6)c4=O)CCO5)cc3F)c2cc1C(=O)NCCN1CCOCC1 [Example 50, N-(3-Fluoro-4-((7-methoxy-6-((2-morpholinoethyl)carbamoyl)quinolin-4-yl)oxy)phenyl)-5-(4-fluorophenyl)-6-oxo-2,3,5,6-tetrahydrofuro[3,2-c]pyridine-7-carboxamide]",1.18,2,19.4,32.3
"COc1cc2nccc(Oc3ccc(NC(=O)c4c5c(cn(-c6ccc(F)cc6)c4=O)CCO5)cc3F)c2cc1C(N)=O [Example 47, N-(4-((6-Carbamoyl-7-methoxyquinolin-4-yl)oxy)-3-fluorophenyl)-5-(4-fluorophenyl)-6-oxo-2,3,5,6-tetrahydrofuro[3,2-c]pyridine-7-carboxamide]",0.47,2,18,30.9
"CNC(=O)c1cc2nccc(Oc3ccc(NC(=O)c4c5c(cn(-c6ccc(F)cc6)c4=O)CCO5)cc3F)c2cc1OC [Example 165, N-(3-Fluoro-4-((6-methoxy-7-(methylcarbamoyl)quinolin-4-yl)oxy)phenyl)-5-(4-fluorophenyl)-6-oxo-2,3,5,6-tetrahydrofuro[3,2-c]pyridine-7-carboxamide]",0.45,3,7.3,32.9
"COc1cc2nccc(Oc3ccc(NC(=O)c4c5c(cn(-c6ccc(F)cc6)c4=O)CCO5)cc3F)c2cc1NC(=O)CCN1CCOCC1 [Example 180, N-(3-Fluoro-4-((7-methoxy-6-(3-morpholinopropanamido)quinolin-4-yl)oxy)phenyl)-5-(4-fluorophenyl)-6-oxo-2,3,5,6-tetrahydrofuro[3,2-c]pyridine-7-carboxamide]",6.83,3,18.1,20.6
"O=C(Nc1ccc(Oc2ccnc3cc(-c4ccc(CN5CCOCC5)cn4)sc23)c(F)c1)c1c2c(cn(-c3ccc(F)cc3)c1=O)CCO2 [Example 5, N-(3-Fluoro-4-((2-(5-(morpholinomethyl)pyridin-2-yl)thieno[3,2-b]pyridin-7-yl)oxy)phenyl)-5-(4-fluorophenyl)-6-oxo-2,3,5,6-tetrahydrofuro[3,2-c]pyridine-7-carboxamide hydrochloride]",5.87,4,21.2,25.9
"CNC(=O)c1cc2c(Oc3ccc(NC(=O)c4c5c(cn(-c6ccc(F)cc6)c4=O)CCO5)cc3F)ccnc2cc1OCCN1CCOCC1 [Example 163, N-(3-Fluoro-4-((6-(methylcarbamoyl)-7-(2-morpholinoethoxy)quinolin-4-yl)oxy)phenyl)-5-(4-fluorophenyl)-6-oxo-2,3,5,6-tetrahydrofuro[3,2-c]pyridine-7-carboxamide]",0.1,2,,
"CN1CCC(Nc2cc(Oc3ccc(NC(=O)c4c5c(cn(-c6ccc(F)cc6)c4=O)CCO5)cc3F)ccn2)CC1 [Example 63, N-(3-Fluoro-4-((2-((1-methylpiperidin-4-yl)amino)pyridin-4-yl)oxy)phenyl)-5-(4-fluorophenyl)-6-oxo-2,3,5,6-tetrahydrofuro[3,2-c]pyridine-7-carboxamide]",20.6,2280,,

# Now from value to compound, other results behind:
IC50 (RON tyrosine kinase) [nM],IC50 [1] [nM],SMILES,cytotoxicity at 1 µM [2] [%],cytotoxicity at 5 µM [2] [%]
1.3,3,"COc1cc2c(Oc3ccc(NC(=O)c4c5c(cn(-c6ccc(F)cc6)c4=O)CCO5)cc3F)ccnc2cc1OCCCN1CCN(C)CC1 [Example 80, N-(3-Fluoro-4-((6-methoxy-7-(3-(4-methylpiperazin-1-yl)propoxy)quinolin-4-yl)oxy)phenyl)-5-(4-fluorophenyl)-6-oxo-2,3,5,6-tetrahydrofuro[3,2-c]pyridine-7-carboxamide]",19.5,19.9
0.61,7,O=C(Nc1ccc(Oc2ccnc3cc(OCCCN4CCCCC4)ccc23)c(F)c1)c1c2c(cn(-c3ccc(F)cc3)c1=O)CCO2 [Example 161],23.4,22
1.01,6,"CN1CCN(CCCOc2ccc3c(Oc4ccc(NC(=O)c5c6c(cn(-c7ccc(F)cc7)c5=O)CCO6)cc4F)ccnc3c2)CC1 [Example 160, N-(3-Fluoro-4-((7-(3-(4-methylpiperazin-1-yl)propoxy)quinolin-4-yl)oxy)phenyl)-5-(4-fluorophenyl)-6-oxo-2,3,5,6-tetrahydrofuro[3,2-c]pyridine-7-carboxamide]",12.7,19.4
1.46,1,"CNC(=O)c1cc2c(Oc3ccc(NC(=O)c4c5c(cn(-c6ccc(F)cc6)c4=O)CCO5)cc3F)ccnc2cc1OCCCN1CCOCC1 [Example 164, N-(3-Fluoro-4-((6-(methylcarbamoyl)-7-(3-morpholinopropoxy)quinolin-4-yl)oxy)phenyl)-5-(4-fluorophenyl)-6-oxo-2,3,5,6-tetrahydrofuro[3,2-c]pyridine-7-carboxamide]",19.4,29.7
7.44,15,"O=C(Nc1ccc(Oc2ccnc3cc(OCCCN4CCOCC4)c(Cl)cc23)c(F)c1)c1c2c(cn(-c3ccc(F)cc3)c1=O)CCO2 [Example 172, N-(4-((6-Chloro-7-(3-morpholinopropoxy)quinolin-4-yl)oxy)-3-fluorophenyl)-5-(4-fluorophenyl)-6-oxo-2,3,5,6-tetrahydrofuro[3,2-c]pyridine-7-carboxamide]",3.19,11.6
2.63,2,"COc1cc2c(Oc3ccc(NC(=O)c4c5c(cn(-c6ccc(F)cc6)c4=O)CCO5)cc3F)ccnc2cc1OCCN1CCOCC1 [Example 78, N-(3-Fluoro-4-((6-methoxy-7-(2-morpholinoethoxy)quinolin-4-yl)oxy)phenyl)-5-(4-fluorophenyl)-6-oxo-2,3,5,6-tetrahydrofuro[3,2-c]pyridine-7-carboxamide]",23.5,23.9
